Experimental data: PubChem BioAssay AID2060890 (Molecular Pharmacology Branch, DTP, NCI, 2025)

System: LG0703-F948-PDC complex spheroid viability
Test: Anticancer human tumor LG0703-F948-PDC patient-derived lung adenocarcinoma cell line growth inhibition [RAS]
Settings: for IC50: curve of first compound; for viability, T/C: stronger effect = lower value
Method in brief: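 Agents were tested in combination matrices in half-log decrements from a top concentration at or near clinical Cmax (10 microM if undetermined). Targets were multi-cell spheroids of tumour lines plus HUVEC and MSC stromal cells.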

[1] = second compound 0.000949 µM, first compound 0.0316 µM
[2] = second compound 0.000949 µM, first compound 0.1 µM
[3] = second compound 0.000949 µM, first compound 0.316 µM
[4] = second compound 0.000949 µM, first compound 1 µM
[5] = second compound 0.000949 µM, first compound 3.16 µM
[6] = second compound 0.000949 µM, first compound 10 µM
[7] = second compound 0.003 µM, first compound 0.0316 µM
[8] = second compound 0.003 µM, first compound 0.1 µM
[9] = second compound 0.003 µM, first compound 0.316 µM
[10] = second compound 0.003 µM, first compound 1 µM
[11] = second compound 0.003 µM, first compound 3.16 µM
[12] = second compound 0.003 µM, first compound 10 µM
[13] = second compound 0.00949 µM, first compound 0.0316 µM
[14] = second compound 0.00949 µM, first compound 0.1 µM
[15] = second compound 0.00949 µM, first compound 0.316 µM
[16] = second compound 0.00949 µM, first compound 1 µM
[17] = second compound 0.00949 µM, first compound 3.16 µM
[18] = second compound 0.00949 µM, first compound 10 µM
[19] = second compound 0.03 µM, first compound 0.0316 µM
[20] = second compound 0.03 µM, first compound 0.1 µM
[21] = second compound 0.03 µM, first compound 0.316 µM
[22] = second compound 0.03 µM, first compound 1 µM
[23] = second compound 0.03 µM, first compound 3.16 µM
[24] = second compound 0.03 µM, first compound 10 µM
[25] = second compound 0.0949 µM, first compound 0.0316 µM
[26] = second compound 0.0949 µM, first compound 0.1 µM
[27] = second compound 0.0949 µM, first compound 0.316 µM
[28] = second compound 0.0949 µM, first compound 1 µM
[29] = second compound 0.0949 µM, first compound 3.16 µM
[30] = second compound 0.0949 µM, first compound 10 µM
[31] = second compound 0.3 µM, first compound 0.0316 µM
[32] = second compound 0.3 µM, first compound 0.1 µM
[33] = second compound 0.3 µM, first compound 0.316 µM
[34] = second compound 0.3 µM, first compound 1 µM
[35] = second compound 0.3 µM, first compound 3.16 µM
[36] = second compound 0.3 µM, first compound 10 µM
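Further: spheroids exposed to agents for 7 days.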
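Wherever viability, T/C is given: 100% = DMSO vehicle wells.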

CC1(O)CCCC1n1c(=O)c(C(F)F)cc2cnc(NC3CCN(S(C)(=O)=O)CC3)nc21 (centres undefined) + CCn1c(-c2cc(N3CCN(C)CC3)cnc2C(C)OC)c2c3cc(ccc31)-c1csc(n1)CC(NC(=O)C1CC1C)C(=O)N1CCCC(N1)C(=O)OCC(C)(C)C2
IC50 (second compound 0.000949 µM): 4620 nM
IC50 (second compound 0.003 µM): < 31.6 nM
IC50 (second compound 0.00949 µM): < 31.6 nM
IC50 (second compound 0.03 µM): < 31.6 nM
IC50 (second compound 0.0949 µM): < 31.6 nM
IC50 (second compound 0.3 µM): < 31.6 nM
viability, T/C [1]: 77.1%
viability, T/C [2]: 89.8%
viability, T/C [3]: 69.7%
viability, T/C [4]: 71.1%
viability, T/C [5]: 63%
viability, T/C [6]: 28.3%
viability, T/C [7]: 52.2%
viability, T/C [8]: 48.5%
viability, T/C [9]: 46.9%
viability, T/C [10]: 52.1%
viability, T/C [11]: 46.7%
viability, T/C [12]: 18.4%
viability, T/C [13]: 27.4%
viability, T/C [14]: 31%
viability, T/C [15]: 31%
viability, T/C [16]: 29.3%
viability, T/C [17]: 33.4%
viability, T/C [18]: 13.4%
viability, T/C [19]: 16.4%
viability, T/C [20]: 18.5%
viability, T/C [21]: 15.9%
viability, T/C [22]: 19.1%
viability, T/C [23]: 19.1%
viability, T/C [24]: 7.67%
viability, T/C [25]: 11.3%
viability, T/C [26]: 14%
viability, T/C [27]: 12.9%
viability, T/C [28]: 17%
viability, T/C [29]: 21%
viability, T/C [30]: 5.97%
viability, T/C [31]: 10.2%
viability, T/C [32]: 7.6%
viability, T/C [33]: 15.7%
viability, T/C [34]: 12.1%
viability, T/C [35]: 11.2%
viability, T/C [36]: 5.22%

CCC(CC)c1cc(NC2CCC(N)C2)n2nccc2n1 (centres undefined) + CCn1c(-c2cc(N3CCN(C)CC3)cnc2C(C)OC)c2c3cc(ccc31)-c1csc(n1)CC(NC(=O)C1CC1C)C(=O)N1CCCC(N1)C(=O)OCC(C)(C)C2
IC50 (second compound 0.000949 µM): 427 nM
IC50 (second compound 0.003 µM): < 31.6 nM
IC50 (second compound 0.00949 µM): < 31.6 nM
IC50 (second compound 0.03 µM): < 31.6 nM
IC50 (second compound 0.0949 µM): < 31.6 nM
IC50 (second compound 0.3 µM): < 31.6 nM
viability, T/C [1]: 72.3%
viability, T/C [2]: 59.8%
viability, T/C [3]: 55.2%
viability, T/C [4]: 33.9%
viability, T/C [5]: 0.67%
viability, T/C [6]: 0.23%
viability, T/C [7]: 44.1%
viability, T/C [8]: 40.2%
viability, T/C [9]: 36.8%
viability, T/C [10]: 25.3%
viability, T/C [11]: 0.46%
viability, T/C [12]: 0.16%
viability, T/C [13]: 24.1%
viability, T/C [14]: 20.3%
viability, T/C [15]: 17.9%
viability, T/C [16]: 9.58%
viability, T/C [17]: 0.42%
viability, T/C [18]: 0.27%
viability, T/C [19]: 13%
viability, T/C [20]: 13.9%
viability, T/C [21]: 13.1%
viability, T/C [22]: 6.07%
viability, T/C [23]: 0.25%
viability, T/C [24]: 0.24%
viability, T/C [25]: 9.5%
viability, T/C [26]: 10.2%
viability, T/C [27]: 9.16%
viability, T/C [28]: 5.84%
viability, T/C [29]: 0.57%
viability, T/C [30]: 0.11%
viability, T/C [31]: 8.46%
viability, T/C [32]: 9.75%
viability, T/C [33]: 8.9%
viability, T/C [34]: 4.9%
viability, T/C [35]: 0.23%
viability, T/C [36]: 0.41%
